Measured values as given in patent US20060287316A1, “METHOD FOR IMPROVING PHARMACOKINETICS OF PROTEASE INHIBITORS AND PROTEASE INHIBITOR PRECURSORS” (priority 2005, published 2006).
≈ marks a conversion by molar mass, not a printed value. Where “and” joins values, the source holds several entries; their conditions need not be identical. Equal values may be shown once. Read-outs that look alike come from different tables or passages of the source.

What was measured:
[1] = system: 63 HIV isolates with reduced susceptibility to all approved protease inhibitors; assay type: cell-based, HIV-1; settings: for % viral strains with EC95s ≦ 200 ng/ml / % viral strains with EC95s ≦ 630 ng/ml: protein-binding adjusted EC95
Excerpt: The cross-resistance profile of PL-100 against 63 HIV isolates with reduced susceptibility to all approved protease inhibitors (P is) including atazanavir was thus tested.
The panel of 63 viral strains was selected based on the following rationale: 1) High-level loss of susceptibility to specific P is; 2) High-level loss of susceptibility to multiple P is; 3) Good representation of the primary mutations. This panel consists of resistant viruses from highly PI-experienced patients with high-level PI resistance.
The genotype of these viruses encompasses a wide variety of mutational patterns. We particularly looked for the following primary PI mutations: D30N, L33F/I, M461/L, G48V, I50L/V, V82A/F/S/T, I84V and L90M as defined by the International AIDS Society (IAS)-USA.
The dark cells indicate a […], the grey cells indicate FC values of 2.5≦FC<10 and the white cells indicate a FC value of; 0≦FC<2.5. The results of cross-resistance profile are further illustrated in the graph of FIG. 1.
In the cross-resistance profiling studies against the 63 resistant strains mentioned herein, EC95 of PL-100 was determined against each strain. The median EC95 represents the concentration required to inhibit 95% of the viral replication of 50% diverse drug-resistant HIV-1 variants tested. Table 8 illustrates the percentage of resistant strains tested with protein-binding adjusted EC95s≦200 ng/ml. The resistant strains are grouped by the number of primary mutations they have.
The EC95 of PL-100 was determined against each of the 63 resistant strains indicated herein. Table 9 illustrates the percentage of resistant strains tested with protein-binding adjusted EC95s≦630 ng/ml. The resistant strains are grouped by the number of primary mutations they have.

[2] = Cytotoxicity in the same cell culture system; assay type: cell-based; settings: human, MT4 cells
Experimental: Cytotoxicity of PL-100 and other P is was evaluated in the same cell culture system. The selectivity index (SI) is the ratio of cytotoxicity (CC50) to antiviral activity (EC50). The selective index is similar to the therapeutic index but relates to in vitro studies.

[3] = system: laboratory adapted HIV strain (NL4-3); experiment: microbe, parasite or virus in culture
Experimental: Briefly, the antiviral activity of PL-100 was determined using MT4 cells infected with a laboratory adapted HIV strain (NL4-3). For comparison, seven approved protease inhibitors (PIs) were tested in parallel.
The effect of 40% human serum on the antiviral activity of PL-100 in MT4 cells infected with NL4-3 was therefore evaluated.

[4] = Water solubility; assay type: physicochemical; settings: water, pH 7.5, aqueous buffer
[5] = Plasma concentration after single oral dose in rats (in vivo cleavage of the phosphate group); design: species or system male Sprague-Dawley rats; settings: 50 mg/Kg po, vehicle Mix, 3 rats
Experimental: To assess the extent of in vivo cleavage of the phosphate group from the putative compounds, PL-100, PL-462 (based on PL-100), PL-337 and PL-515 (based on PL-337) compounds were administered po (per os, (i.e., by mouth)) (50 mg/kg) to male Sprague-Dawley rats and their plasma concentration measured at different time intervals post-administration.
All test articles (PL-100, PL-462, PL-337 and PL-515) were prepared in different vehicle at the final concentration of 25 mg/mL. The vehicle composition is as follows: (1) 20% ethanol; 50% propylene glycol; 0.05% w/v Tween 20 and water (Mix); (2) PBS buffer (PBS).
Test articles were administered to male Sprague-Dawley rats at a single oral dose of 50 mg/kg. Each article was tested in three rats. Blood samples (0.2-0.3 mL) were collected at the post-dose time of 10, 20, 40, 60, 120, 180 and 360 minutes. The harvested blood was centrifuged to isolate plasma. The resulting plasma was separated and stored at −70° C.
Plasma samples together with standards and quality control samples were treated to precipitate proteins, then analyzed by HPLC-MS, for the presence of PL-462, PL-100, PL-515 and PL-337.

[6] = system: CYP3A4/5; experiment: Inhibition of CYP450 sub-families; assay type: biochemical; settings: FIG. 10
[7] = Effect of CYP450 inhibitors on metabolism of HIV-1 protease inhibitors in human liver microsomes; assay type: in vitro ADME
Experimental: The effect of CYP450 inhibitors on the metabolism of HIV-1 anti-protease was tested in human liver microsomes.

[8] = 63 diverse, multi-PI-resistant strains
[9] = 63 diverse, multi-PI-resistant strains, FC in IC50 vs NL-4.3
[10] = strains with 0 primary PI mutations
[11] = strains with 1 primary PI mutation
[12] = strains with 2 primary PI mutations
[13] = strains with 3 primary PI mutations
[14] = strains with 4 primary PI mutations
[15] = strains with 5-6 primary PI mutations

Which results are given for `COC(=O)N[C@H](C(=O)NCCCC[C@@H](CO)N(CC(C)C)S(=O)(=O)c1ccc(N)cc1)C(c1ccccc1)c1ccccc1` [PL-100, (1S,5S)-(1-{5-[(4-amino-benzenesulfonyl)-isobutyl-amino]-6-hydroxy-hexylcarbamoyl}-2,2-diphenyl-ethyl)-carbamic acid methyl ester]?
% FC < 2.5 [1, 8]: 37%; % FC < 10 [1, 8]: 76%; % FC > 50 [1, 8]: 3%; Mean FC [1, 9]: 8.7; Median FC [1, 9]: 3.6; % viral strains with EC95s ≦ 200 ng/ml [1, 10]: 100%; % viral strains with EC95s ≦ 630 ng/ml [1, 10]: 100%; % viral strains with EC95s ≦ 200 ng/ml [1, 11]: 100%; % viral strains with EC95s ≦ 630 ng/ml [1, 11]: 100%; % viral strains with EC95s ≦ 200 ng/ml [1, 12]: 36%; % viral strains with EC95s ≦ 630 ng/ml [1, 12]: 82%; % viral strains with EC95s ≦ 200 ng/ml [1, 13]: 23%; % viral strains with EC95s ≦ 630 ng/ml [1, 13]: 55%; % viral strains with EC95s ≦ 200 ng/ml [1, 14]: 0%; % viral strains with EC95s ≦ 630 ng/ml [1, 14]: 29%; % viral strains with EC95s ≦ 200 ng/ml [1, 15]: 0%; % viral strains with EC95s ≦ 630 ng/ml [1, 15]: 0%; Fold change in IC50 vs. Reference ([1]; sample O3-129578, 46I/82T/84V, panel ID 11): 1.2; Fold change in IC50 vs. Reference ([1]; sample O3-129585, 48V/54V/82A/90M, panel ID 26): 1.9; Fold change in IC50 vs. Reference ([1]; sample O3-129586, 30N/88D/90M, panel ID 28): 1.4; Fold change in IC50 vs. Reference ([1]; sample O3-148709 (non-B subtype), 32I/47A, panel ID 1): 1.4; Fold change in IC50 vs. Reference ([1]; sample O3-1129583, 84V/90M, panel ID 21): 2.3; Fold change in IC50 vs. Reference ([1]; sample O4-148712, 46I/88S, panel ID 122): 0.8; Fold change in IC50 vs. Reference ([1]; sample O4-148712, 46I/88S, panel ID 124): 1.1; Fold change in IC50 vs. Reference ([1]; sample O4-148713, 46I/88S, panel ID 123): 0.4; Fold change in IC50 vs. Reference ([1]; sample O4-148716, 33F/54L/88S/90M, panel ID 10): 1.7; Fold change in IC50 vs. Reference ([1]; sample O4-148721, 32I/46I/47V/50L, panel ID 127): 1.1; Fold change in IC50 vs. Reference ([1]; sample O4-148725, 32I/46L/47V/84V, panel ID 53): 0.6; Fold change in IC50 vs. Reference ([1]; sample O4-148739, 48V/54V/82A/90M, panel ID 138): 1.1; Fold change in IC50 vs. Reference ([1]; sample O4-148742, 46L/48V/82A/84V, panel ID 94): 1.2; Fold change in IC50 vs. Reference ([1]; sample O4-148748, 37S/41K/70E, panel ID 115): 0.9; Fold change in IC50 vs. Reference ([1]; sample O4-148749, 37T/41K/70E, panel ID 151): 1.9; Fold change in IC50 vs. Reference ([1]; sample O4-148751, 54V/84V, panel ID 171): 0.8; Fold change in IC50 vs. Reference ([1]; sample O4-148752, 54V/84V, panel ID 152): 1.2; CC50 [2]: 33000 nM; EC50 ([3]; Human immunodeficiency virus 1, NL43, MT4, MT4 cells infected with NL4-3): 16 nM; EC50 ([3]; Human immunodeficiency virus 1, NL43, MT4, culture condition 10% FBS): 18 nM; EC50 ([3]; Human immunodeficiency virus 1, NL43, MT4, culture condition 10% FBS + 40% human serum): 100 nM; Fold Change in EC50 ([3]; culture condition 10% FBS): 1.0; Fold Change in EC50 ([3]; culture condition 10% FBS + 40% human serum): 6 and 5.9; SI (CC50/EC50) ([3]; ratio of cytotoxicity (CC50) to antiviral activity (EC50)): 2,063; solubility [4]: 79 µg/mL (≈ 126 µM); AUC [5]: 0.675 ± 0.171 μg/hr * ml; Cmax [5]: 498 ± 203 nM; Tmax [5]: 40 ± 16 min; Inhibition of CYP3A4/5 [6]: inhibits CYP3A4/5; Effect of CYP450 inhibitor on metabolism ([7]; with ketoconazole and sulfaphenazole (FIG. 6)): able to increase the PK of PL-100; Effect of CYP450 inhibitor on metabolism ([7]; with ritonavir (FIG. 6)): most effective combination
